Measurements: DBAASP
Converted amounts (≈) assume the structure as drawn.

How the values were obtained:
Experiment in all cases: ≥ marks a high value that may be exact or a test limit, other limits are often not marked, values filed in µg/mL are converted to µM
[1] = test system: Escherichia coli ATCC 25922
[2] = test system: Pseudomonas aeruginosa ATCC 27853
[3] = test system: Staphylococcus aureus
[4] = test system: Escherichia coli
[5] = test system: Staphylococcus aureus ATCC 25923

| SMILES | MIC [1] [µM] | MIC [2] [µM] | MIC [3] [µM] | MIC [4] [µM] | MIC [5] [µM] |
| --- | --- | --- | --- | --- | --- |
| CC[C@H](C)[C@H](NC(=O)[C@H](CCCCN)NC(=O)[C@@H](N)Cc1ccccc1)C(=O)N[C@@H](CCCCN)C(=O)N[C@@H](C)C(=O)N[C@@H](CO)C(=O)N[C@@H](CCCCN)C(=O)N[C@@H](CCCCN)C(=O)N[C@@H](CC(C)C)C(=O)N[C@@H](CC(C)C)C(=O)N[C@@H](CCCCN)C(=O)N[C@@H](CCCCN)C(=O)N[C@H](C(=O)NCC(=O)N[C@@H](CCCCN)C(=O)NCC(=O)N[C@@H](C)C(=O)N[C@@H](CC(C)C)C(=O)NCC(=O)N[C@@H](C)C(=O)N[C@H](C(=O)N[C@@H](C)C(=O)N[C@@H](CCCCN)C(=O)N[C@@H](C)C(=O)N[C@@H](CC(C)C)C(=O)N[C@@H](C)C(=O)N[C@@H](CCC(N)=O)C(=O)N[C@@H](CCC(N)=O)C(=O)N[C@@H](C)C(=O)O)C(C)C)C(C)C [FKIKASKKLLKKVGKGALGAVAKALAQQA] |  | 0.5 (≈ 1.48 µg/mL) |  |  |  |
| CC[C@H](C)[C@H](NC(=O)CN)C(=O)N[C@@H](CCSC)C(=O)N[C@@H](CC(=O)O)C(=O)N[C@@H](CO)C(=O)N[C@H](C(=O)N[C@@H](CCCCN)C(=O)N[C@@H](CC(N)=O)C(=O)N[C@H](C(=O)N[C@@H](C)C(=O)N[C@@H](CCCCN)C(=O)N[C@@H](CC(N)=O)C(=O)N[C@H](C(=O)N[C@@H](C)C(=O)NCC(=O)N[C@@H](CCC(N)=O)C(=O)N[C@@H](CC(C)C)C(=O)N[C@@H](CC(C)C)C(=O)N[C@@H](CC(=O)O)C(=O)N[C@@H](CCCCN)C(=O)N[C@@H](CC(C)C)C(=O)N[C@@H](CCCCN)C(=O)N[C@H]1CSSC[C@@H](C(=O)O)NC(=O)CNC(=O)[C@H]([C@@H](C)O)NC(=O)[C@H]([C@@H](C)CC)NC(=O)[C@H](CCCCN)NC1=O)[C@@H](C)CC)C(C)C)C(C)C [GIMDSVKNVAKNIAGQLLDKLKCKITGC] | 16 (≈ 47.4 µg/mL) |  |  |  |  |
| CSCC[C@H](NC(=O)CNC(=O)[C@H](C)NC(=O)[C@H](CCCCN)NC(=O)[C@H](C)NC(=O)[C@H](Cc1ccccc1)NC(=O)[C@H](CCCCN)NC(=O)[C@H](CCCCN)NC(=O)[C@H](CC(C)C)NC(=O)[C@@H](NC(=O)[C@H](CC(=O)O)NC(=O)[C@H](CC(C)C)NC(=O)[C@H](Cc1ccccc1)NC(=O)[C@H](CC(C)C)NC(=O)CN)[C@@H](C)O)C(=O)N[C@@H](CCC(=O)O)C(=O)N[C@@H](C)C(=O)N[C@H](C(=O)N[C@H](C(=O)N[C@@H](CC(N)=O)C(=O)N1CCC[C@H]1C(=O)N[C@@H](CCCCN)C(=O)O)[C@@H](C)O)C(C)C [GLFLDTLKKFAKAGMEAVTNPK] |  |  | 80 (≈ 190 µg/mL) | 80 (≈ 190 µg/mL) |  |
| CC(C)C[C@H](NC(=O)CN)C(=O)N[C@@H](CC(C)C)C(=O)N[C@@H](CCCCN)C(=O)N[C@@H](CCCN=C(N)N)C(N)=O [GLLKR] | > 52.9 |  |  |  | > 52.9 |
| CC[C@H](C)[C@H](NC(=O)[C@H](CCCN=C(N)N)NC(=O)[C@@H](NC(=O)[C@H](CC(C)C)NC(=O)[C@H](CC(C)C)NC(=O)CN)[C@@H](C)O)C(=O)N[C@@H](CCCCN)C(=O)N[C@H](C(=O)N[C@@H](CC(C)C)C(=O)N[C@@H](CC(C)C)C(N)=O)[C@@H](C)O [GLLTRIKTLL] | 200 (≈ 225 µg/mL) |  |  |  |  |
| CC[C@H](C)[C@H](NC(=O)[C@H](CC(=O)O)NC(=O)[C@@H](NC(=O)[C@@H](NC(=O)CN)C(C)C)C(C)C)C(=O)N[C@@H](CC(C)C)C(=O)N[C@@H](CCCCN)C(=O)NCC(=O)N[C@@H](C)C(=O)N[C@@H](C)C(=O)N[C@@H](CCCCN)C(=O)N[C@@H](CC(=O)O)C(=O)N[C@@H](CC(C)C)C(=O)N[C@@H](C)C(=O)NCC(=O)N[C@@H](Cc1cnc[nH]1)C(=O)O [GVVDILKGAAKDLAGH] | 79.9 (≈ 125 µg/mL) |  |  |  | 20 (≈ 31.3 µg/mL) |
| C[C@H](NC(=O)[C@H](C)NC(=O)[C@H](CCCCN)NC(=O)[C@H](CCCCN)NC(=O)[C@H](C)NC(=O)[C@H](C)NC(=O)[C@H](CCCCN)NC(=O)[C@H](C)NC(=O)[C@H](C)NC(=O)[C@H](CCCCN)NC(=O)[C@H](CCCCN)NC(=O)[C@H](C)NC(=O)[C@H](C)NC(=O)[C@@H](N)CCCCN)C(N)=O [KAAKKAAKAAKKAA] | 47 (≈ 63.7 µg/mL) |  |  |  | > 256 |
| CC(C)C[C@H](NC(=O)[C@H](CCCCN)NC(=O)[C@H](CCCCN)NC(=O)[C@H](C)NC(=O)[C@H](CC(C)C)NC(=O)[C@@H](N)CCCCN)C(=O)N[C@@H](C)C(N)=O [KLAKKLA] | > 100 | > 100 |  |  | > 100 |
| CC[C@H](C)[C@H](NC(=O)[C@H](Cc1c[nH]c2ccccc12)NC(=O)[C@H](CCCCN)NC(=O)[C@@H]1CCCN1C(=O)[C@H](CC(C)C)NC(=O)[C@@H](N)CCCCN)C(=O)N[C@H](C(=O)N[C@@H](CCCCN)C(=O)N[C@H](C(=O)N[C@H](C(=O)N[C@@H](CC(N)=O)C(=O)N[C@@H](CCCCN)C(=O)N[C@@H](Cc1ccccc1)C(=O)N[C@H](C(=O)N[C@@H](CCCCN)C(=O)N[C@@H](CCCCN)C(=O)O)[C@@H](C)O)C(C)C)[C@@H](C)O)[C@@H](C)CC [KLPKWIIKTVNKFTKK] |  |  |  | 3.3 (≈ 6.51 µg/mL) |  |
| CSCC[C@H](NC(=O)[C@H](CCCCN)NC(=O)[C@H](CCCCN)NC(=O)[C@H](CCCCN)NC(=O)[C@H](CCCN=C(N)N)NC(=O)[C@H](CCCN=C(N)N)NC(=O)[C@H](Cc1ccc(O)cc1)NC(=O)[C@@H](N)CCCN=C(N)N)C(=O)N[C@@H](CCCCN)C(=O)N[C@@H](CCCCN)C(=O)N[C@@H](C)C(=O)N[C@@H](CC(C)C)C(=O)N[C@@H](CCC(N)=O)C(=O)N[C@@H](Cc1ccc(O)cc1)C(N)=O [RYRRKKKMKKALQY] | > 100 | > 100 |  |  |  |
| CC(C)C[C@H](NC(=O)[C@H](Cc1ccccc1)NC(=O)[C@@H]1CCCN1C(=O)[C@H](Cc1c[nH]c2ccccc12)NC(=O)[C@H](C)NC(=O)[C@H](C)NC(=O)[C@@H]1CCCN1C(=O)[C@H](Cc1ccccc1)NC(=O)[C@H](CCCN=C(N)N)NC(=O)[C@H](CCCN=C(N)N)NC(=O)[C@@H](N)C(C)C)C(=O)N[C@@H](CCCN=C(N)N)C(=O)N[C@@H](CCCN=C(N)N)C(N)=O [VRRFPAAWPFLRR] | 90.5 (≈ 151 µg/mL) |  |  |  |  |
| CSCC[C@H](NC(=O)[C@H](CCCN=C(N)N)NC(=O)[C@H](Cc1c[nH]c2ccccc12)NC(=O)[C@H](C)NC(=O)[C@H](Cc1c[nH]c2ccccc12)NC(=O)[C@H](CCCN=C(N)N)NC(=O)[C@H](CCCN=C(N)N)NC(=O)[C@H](C)NC(=O)[C@H](CCCCN)NC(=O)[C@@H](N)Cc1ccc(O)cc1)C(=O)N[C@@H](CCCCN)C(=O)O [YKARRWAWRMK] | 32.2 (≈ 50 µg/mL) | 129 (≈ 200 µg/mL) |  |  | 32.2 (≈ 50 µg/mL) |

The remaining molecules from weak to strong by MIC [1], led by results:

| MIC [1] [µM] | MIC [2] [µM] | MIC [3] [µM] | MIC [4] [µM] | MIC [5] [µM] | SMILES |
| --- | --- | --- | --- | --- | --- |
| 8.28 (≈ 9.99 µg/mL) | 16.6 (≈ 20 µg/mL) |  |  | 2.07 (≈ 2.5 µg/mL) | NC(=O)[C@H](CCCN=C(N)N)NC(=O)[C@H](Cc1c[nH]c2ccccc12)NC(=O)[C@H](Cc1ccc(O)cc1)NC(=O)[C@H](CCCN=C(N)N)NC(=O)[C@H](Cc1c[nH]c2ccccc12)NC(=O)[C@H](Cc1c[nH]c2ccccc12)NC(=O)[C@@H](N)CCCN=C(N)N [RWWRYWR] |
| 8 (≈ 25.1 µg/mL) |  |  |  |  | CC[C@H](C)[C@H](NC(=O)[C@H](CO)NC(=O)[C@H](Cc1ccccc1)NC(=O)[C@H](CC(C)C)NC(=O)[C@H](C)N)C(=O)N[C@@H](CC(C)C)C(=O)N[C@@H](CCCN=C(N)N)C(=O)NCC(=O)N[C@@H](CC(C)C)C(=O)N[C@@H](CCCCN)C(=O)N[C@@H](CCCCN)C(=O)N[C@@H](CC(C)C)C(=O)NCC(=O)N[C@@H](CC(N)=O)C(=O)N[C@@H](CCSC)C(=O)NCC(=O)N[C@@H](CCC(N)=O)C(=O)N[C@@H](C)C(=O)N[C@@H](Cc1ccccc1)C(=O)N[C@H](C(=O)N[C@@H](CC(N)=O)C(=O)N[C@H]1CSSC[C@@H](C(=O)O)NC(=O)[C@H](CCCCN)NC(=O)[C@H](CCCCN)NC(=O)[C@H](Cc2ccc(O)cc2)NC(=O)[C@H]([C@@H](C)CC)NC(=O)[C@H](CCCCN)NC1=O)C(C)C [ALFSILRGLKKLGNMGQAFVNCKIYKKC] |
| 4.4 (≈ 10 µg/mL) |  |  |  | 2.2 (≈ 5 µg/mL) | CSCC[C@H](NC(=O)[C@H](CCCN=C(N)N)NC(=O)[C@H](Cc1c[nH]c2ccccc12)NC(=O)[C@H](C)NC(=O)[C@H](Cc1c[nH]c2ccccc12)NC(=O)[C@H](CCCN=C(N)N)NC(=O)[C@H](CCCN=C(N)N)NC(=O)[C@H](C)NC(=O)[C@H](CCCCN)NC(=O)[C@H](Cc1ccccc1)NC(=O)[C@H](Cc1c[nH]c2ccccc12)NC(=O)[C@H](C)NC(=O)[C@@H]1CCCN1)C(=O)N[C@@H](CC(C)C)C(=O)N[C@@H](CCCCN)C(=O)N[C@@H](CCCCN)C(=O)N[C@@H](C)C(=O)N[C@@H](C)C(=O)O [PAWFKARRWAWRMLKKAA] |
| 4 (≈ 8.77 µg/mL) | 4 (≈ 8.77 µg/mL) |  |  | 4 (≈ 8.77 µg/mL) | CC(C)C[C@H](NC(=O)[C@H](CCCCN)NC(=O)CNC(=O)[C@H](CC(C)C)NC(=O)[C@H](CCCCN)NC(=O)[C@H](CCCCN)NC(=O)CNC(=O)[C@H](CC(C)C)NC(=O)[C@H](CCCCN)NC(=O)CNC(=O)[C@H](CC(C)C)NC(=O)[C@H](CCCCN)NC(=O)[C@H](CCCCN)NC(=O)CNC(=O)[C@H](CC(C)C)NC(=O)[C@@H](N)CCCCN)C(=O)NCC(=O)N[C@@H](CCCCN)C(=O)N[C@@H](CCCCN)C(=O)N[C@@H](CC(C)C)C(=O)NCC(N)=O [KLGKKLGKLGKKLGKLGKKLG] |
| 3.72 (≈ 4 µg/mL) |  |  |  |  | CC(C)C[C@H](NC(=O)[C@H](CCC(N)=O)NC(=O)[C@H](CCCCN)NC(=O)[C@H](CCCN=C(N)N)NC(=O)[C@H](Cc1ccccc1)NC(=O)[C@H](C)N)C(=O)N[C@@H](CCCCN)C(=O)N[C@@H](Cc1c[nH]c2ccccc12)C(=O)O [AFRKQLKW] |
| 3.1 (≈ 8.32 µg/mL) |  |  |  |  | CC[C@H](C)[C@H](NC(=O)CN)C(=O)NCC(=O)N[C@@H](CCCCN)C(=O)N[C@@H](Cc1ccccc1)C(=O)N[C@@H](CC(C)C)C(=O)N[C@@H](Cc1cnc[nH]1)C(=O)N[C@@H](CO)C(=O)N[C@@H](C)C(=O)N[C@@H](CCCCN)C(=O)N[C@@H](CCCCN)C(=O)N[C@@H](Cc1ccccc1)C(=O)NCC(=O)N[C@@H](CCCCN)C(=O)N[C@@H](C)C(=O)N[C@@H](Cc1ccccc1)C(=O)N[C@H](C(=O)NCC(=O)N[C@@H](CCC(=O)O)C(=O)N[C@H](C(=O)N[C@@H](CCSC)C(=O)N[C@@H](CC(N)=O)C(=O)N[C@@H](CO)C(=O)NCC(=O)NCC(=O)N[C@@H](CS)C(N)=O)[C@@H](C)CC)C(C)C [GIGKFLHSAKKFGKAFVGEIMNSGGC] |
